Laboratory results published in ChEMBL document CHEMBL3751697, “Enantiomeric 3-deaza-1',6'-isoneplanocin and its 3-bromo analogue: Synthesis by the Ullmann reaction and their antiviral properties” (Bioorg Med Chem Lett, 2016).
Active and inactive are the calls of the source. The calls are words filed in the database; no cut-off is given here.

Assays:
Measles morbillivirus = experiment: Antiviral activity against Measles virus; type: functional, organism-based
Dengue virus = experiment: Antiviral activity against Dengue virus; type: functional, organism-based
[1] = tested on: Japanese encephalitis virus; experiment: Antiviral activity against Japanese encephalitis virus; type: functional, organism-based
Human betaherpesvirus 5 = experiment: Antiviral activity against Human cytomegalovirus; type: functional, organism-based
Chikungunya virus = experiment: Antiviral activity against Chikungunya virus; type: functional
Ebolavirus [2] = experiment: Antiviral activity against Zaire ebolavirus infected in African monkey Vero cells; type: functional, cell-based; settings: Orthoebolavirus
Rift Valley fever virus = experiment: Antiviral activity against Rift Valley fever virus; type: functional, organism-based
Tacaribe virus = experiment: Antiviral activity against Tacaribe virus; type: functional, organism-based; settings: Mammarenavirus tacaribeense
Nipah virus = experiment: Antiviral activity against Nipah virus; type: functional, organism-based; settings: Henipavirus nipahense
Yellow fever virus = experiment: Antiviral activity against Yellow fever virus; type: functional, organism-based
Norovirus = experiment: Antiviral activity against Norovirus; type: functional
Hepatitis B virus = experiment: Antiviral activity against Hepatitis B virus; type: functional, organism-based
[3] = Cytotoxicity against African monkey Vero cells; type: cell-based; settings: chlorocebus sabaeus
Hepatitis C virus = experiment: Antiviral activity against Hepatitis C virus; type: functional, organism-based; settings: Hepacivirus hominis
[4] = Selectivity index, ratio of CC50 for African monkey Vero cells to EC50 for Zaire ebolavirus; type: toxicity, cell-based; settings: read-out: Ratio CC50/EC50
[5] = Cytotoxicity against human HepG2 cells; type: cell-based
[6] = Selectivity index, ratio of CC50 for human HepG2 cells to EC50 for Zaire ebolavirus; type: toxicity, cell-based; settings: read-out: Ratio CC50/EC50
Ebolavirus [7] = experiment: Antiviral activity against Zaire ebolavirus infected in human HepG2 cells; type: functional, cell-based; settings: Orthoebolavirus
Vaccinia virus = experiment: Antiviral activity against Vaccinia virus; type: functional, organism-based; settings: Orthopoxvirus vaccinia
Monkeypox virus = experiment: Antiviral activity against Monkeypox virus; type: functional, organism-based
Enterovirus C = experiment: Antiviral activity against Poliovirus; type: functional, organism-based
[8] = tested on: Venezuelan equine encephalitis virus; experiment: Antiviral activity against Venezuelan equine encephalitis virus; type: functional, organism-based
West Nile virus = experiment: Antiviral activity against West Nile virus; type: functional, organism-based
Lyssavirus rabies = experiment: Antiviral activity against Rabies virus; type: functional
Punta Toro virus = experiment: Antiviral activity against Punta Toro virus; type: functional, organism-based

**Q.** With `Nc1ncc(Br)c2c1ncn2C1=C[C@@H](CO)[C@H](O)[C@@H]1O` as the compound, how does the EC50 (Measles morbillivirus) read?
**A.** < 290 nM

**Q.** And the Activity (Dengue virus)?
**A.** inactive

**Q.** And the Activity [1]?
**A.** inactive

**Q.** What about the EC50 (Human betaherpesvirus 5) of the same compound?
**A.** < 100 nM

**Q.** And the Activity (Chikungunya virus)?
**A.** inactive

**Q.** And the EC50 (Ebolavirus [2])?
**A.** 3510 nM

**Q.** What about the Activity (Rift Valley fever virus) of the same compound?
**A.** inactive

**Q.** And the Activity (Tacaribe virus)?
**A.** inactive

**Q.** And the Activity (Nipah virus)?
**A.** inactive

**Q.** And the Activity (Yellow fever virus)?
**A.** inactive

**Q.** What about the EC50 (Norovirus) of the same compound?
**A.** 1300 nM

**Q.** And the EC50 (Hepatitis B virus)?
**A.** 3250 nM

**Q.** And the CC50 [3]?
**A.** > 100000 nM

**Q.** And the Activity (Hepatitis C virus)?
**A.** inactive

**Q.** What about the selectivity ratio [4] of the same compound?
**A.** > 28.5

**Q.** What does the source list for `Nc1ncc(Br)c2c1ncn2[C@@H]1C=C(CO)[C@@H](O)[C@H]1O`?
**A.** CC50 [5]: 21100 nM; selectivity ratio [6]: > 67; EC50 (Ebolavirus [7]): < 320 nM; EC90 (Ebolavirus [7]): 3020 nM

**Q.** Which results are given for `Nc1nccc2c1ncn2C1=C[C@@H](CO)[C@H](O)[C@@H]1O`?
**A.** CC50 [5]: > 100000 nM; EC50 (Ebolavirus [7]): < 320 nM; EC90 (Ebolavirus [7]): < 320 nM; Activity (Measles morbillivirus): inactive; EC50 (Human betaherpesvirus 5): < 100 nM; Activity (Vaccinia virus): inactive; Activity (Monkeypox virus): inactive; Activity (Enterovirus C): inactive; Activity [8]: inactive; Activity (West Nile virus): inactive; Activity (Lyssavirus rabies): inactive; Activity (Punta Toro virus): inactive

**Q.** What does the source list for `Nc1nccc2c1ncn2C1=C[C@H](CO)[C@@H](O)[C@H]1O`?
**A.** CC50 [5]: > 100000 nM; EC50 (Ebolavirus [7]): < 320 nM; EC90 (Ebolavirus [7]): 74100 nM; EC50 (Measles morbillivirus): < 380 nM; EC50 (Human betaherpesvirus 5): < 100 nM; Activity (Vaccinia virus): inactive; Activity (Monkeypox virus): inactive; Activity (Enterovirus C): inactive; Activity [8]: inactive; Activity (West Nile virus): inactive; Activity (Lyssavirus rabies): inactive; Activity (Punta Toro virus): inactive

**Q.** What does the source list for `Nc1ncc(Br)c2c1ncn2C1=C[C@H](CO)[C@@H](O)[C@H]1O`?
**A.** EC50 (Measles morbillivirus): < 290 nM; Activity (Dengue virus): inactive; Activity [1]: inactive; EC50 (Human betaherpesvirus 5): < 100 nM; Activity (Chikungunya virus): inactive; EC50 (Ebolavirus [2]): < 100 nM; Activity (Rift Valley fever virus): inactive; Activity (Tacaribe virus): inactive; Activity (Nipah virus): inactive; Activity (Yellow fever virus): inactive; CC50 [3]: > 100000 nM; Activity (Hepatitis C virus): inactive; selectivity ratio [4]: > 1000
